According to ChEMBL document CHEMBL1148954, “Two new cytotoxic tetracyclic tetraterpenoids from the soft coral Sarcophyton tortuosum” (J Nat Prod, 2004):
In brackets after ≈: the same amount, converted by molar mass.

Experiments:
[1] = Cytotoxicity against human CNE2 cells by MTT assay; format: functional, cell-based; conditions: CNE-2
P388 = assay: Cytotoxicity against mouse P388 cells by MTT assay; format: functional, cell-based

Row | SMILES | IC50 [1] [µg/mL] | IC50 (P388) [µg/mL]
1 | COC(=O)[C@@]12CC(=O)[C@@H](C(C)C)CC(=O)[C@@H](C)CCC[C@@H](C)CC(=O)[C@@H]1CC(C)=C1[C@@H]3C[C@@](C)(O)[C@H](CC[C@@H](C)C(=O)CC/C(C)=C/[C@H]12)O3 [METHYL TORTUOATE B] | 24.7 (≈ 36.2 µM) | 5 (≈ 7.32 µM)
2 | COC(=O)[C@@]12CC(=O)[C@@H](C(C)C)CC(=O)[C@@H](C)CCC[C@@H](C)CC(=O)[C@@H]1CC(C)=C1[C@H]2/C=C(\C)CC[C@H]2O[C@@H](CC=C2C)[C@](C)(O)C[C@@H]1O [METHYL TORTUOATE A] | 22.7 (≈ 33.2 µM) | 3.5 (≈ 5.12 µM)
